Tests used:
[1] = tested on: utrophin/dystrophin double knockout (DKO) mice; assay: wire hang in DKO males; assay type: in vivo, mouse; settings: DKO males at 10 weeks; vs vehicle; FIG. 15
Excerpt: While the DSG KO (sgcd−/−) mice lack functional delta-sarcoglycan, the MD phenotype is milder than the human disease. Since utrophin, a dystrophin-related protein, is able to compensate for the loss of dystrophin, loss of utrophin and dystrophin (DKO) results in a more severe phenotype. […] The mice are difficult to generate and care for, and often die prematurely. Ifetroban treatment was started at 3 weeks upon weaning.
FIG. 1 are photos of a vehicle-treated compared with an ifetroban-treated DKO mouse. FIG. 1A is a photograph of a vehicle-treated DKO Mouse at 10 weeks. FIG. 1B is a photograph of an ifetroban-treated DKO mouse at 10 weeks. The ability to wrap the tail around the wire is dependent on muscle function. A reason the DKO mice are really hard to evaluate in the wire hang is that they have such severe scoliosis that their hind paws are very close to their front paws, so raising their hind paws to get a 4-limbed grip is not difficult despite their affliction.
FIG. 15 are graphs showing wire hang in DKO males at 10 weeks (ifetroban-treated (“ife”) versus vehicle).

dSG KO mice [2] = assay: wire hang in dSG mice; assay type: in vivo, mouse
Excerpt: (§1) Example 4 utilized West/Carrier Muscular Dystrophy Animal Models (Delta-sarcoglycan knock-out mice (sgcd−/−)). Mice devoid of DSG develop cardiomyopathy and MD with signs of progressive disease such as necrosis, muscular regeneration, inflammation and fibrosis within the first 3 months of life. Mice that are homozygous for the targeted mutation are viable, fertile and normal in size. No gene product (protein) is immunodetected in skeletal muscle microsomal preparations. At 8 weeks of age there is an onset of sudden mortality, with a 50% survival rate at 28 weeks. Elevated creatine kinase serum levels are indicative of striated muscle degeneration. […] At 12 weeks of age, cardiac muscle tissue also begins to show degeneration, inflammatory infiltration and perivascular fibrosis. Myofiber membranes have permeability defects as assessed by Evans blue dye uptake into myofiber cytoplasm. […] A major function of dystrophin is to strengthen the sarcolemma by cross-linking the ECM with the cytoskeleton. […] They work to connect sarcolemma to cytoplasmic actin cytoskeleton. Dysfunction produces membrane instability, elevated [Ca2+]I and disrupted NO signaling. γ- and δ-SG form a core necessary for delivery/retention of other SG to the membrane.
Veh and ife-treated groups were NS tested against each other. N in parentheses. “ife”=ifetroban.
FIG. 8 depicts wire hang time for mice tested.

[3] = tested on: δ-sarcoglycan knockout (dSG KO) mouse model of limb-girdle muscular dystrophy; assay: cardiac histology (Masson's trichrome) in dSG KO mice; assay type: in vivo
Excerpt: (§2) Applicants explored the possibility that TPr activity may contribute to pathology in muscular dystrophy. In preliminary studies, the effects of blocking TPr activity in a δ-sarcoglycan knockout (dSG KO) mouse model of limb-girdle muscular dystrophy (LGMD). […] The inhibition of LV epicardial fibrosis may have particular applicability to DMD patients, where cardiac fibrosis typically begins in the sub-epicardium of the left ventricular (LV) free wall and progresses to include the remaining LV free wall and septum. […] Therefore, it is believed that TPr activity contributes to pathology in muscular dystrophy.
as §1
FIGS. 9A (dSGKO-vehicle) and 9B (DsGKO-ifetroban) show cardiac histology in dSG KO males. Less fibrosis seen in ifetroban treated RV. Shown is Masson's trichrome at 4× for gross histology. […]

[4] = tested on: pressure-overload model of pulmonary arterial hypertension; settings: cited from earlier work
dSG KO mice [5] = assay: intestinal histology (H&E) in dSG KO mice; assay type: in vivo, mouse; settings: dSG KO mice vs vehicle-treated dSG KO mice; FIG. 13
Excerpt: as §1, with “membrane. […]” for “membrane.”

[6] = tested on: δ-sarcoglycan knockout (dSG KO) mouse model of limb-girdle muscular dystrophy; assay: plasma cardiac troponin I in dSG KO mice; assay type: in vivo; settings: given in drinking water
Excerpt: as §2
Example 4 utilized West/Carrier Muscular Dystrophy Animal Models (Delta-sarcoglycan knock-out mice (sgcd−/−)). Mice devoid of DSG develop cardiomyopathy and MD with signs of progressive disease such as necrosis, muscular regeneration, inflammation and fibrosis within the first 3 months of life. Mice that are homozygous for the targeted mutation are viable, fertile and normal in size. No gene product (protein) is immunodetected in skeletal muscle microsomal preparations. […] Myofiber membranes have permeability defects as assessed by Evans blue dye uptake into myofiber cytoplasm. […]
The term “cTNI” means plasma cardiac troponin I. The term “KO” means knockout. […] Plasma cardiac troponin I (cTNI) is highly specific and sensitive for myocardial tissue and can be measured rapidly. […]

dSG KO mice [7] = assay: survival of dSG KO mice; assay type: in vivo, mouse
Excerpt: Applicants explored the possibility that TPr activity may contribute to pathology in muscular dystrophy. In preliminary studies, the effects of blocking TPr activity in a δ-sarcoglycan knockout (dSG KO) mouse model of limb-girdle muscular dystrophy (LGMD). […] The inhibition of LV epicardial fibrosis may have particular applicability to DMD patients, where cardiac fibrosis typically begins in the sub-epicardium of the left ventricular (LV) free wall and progresses to include the remaining LV free wall and septum. […] Therefore, it is believed that TPr activity contributes to pathology in muscular dystrophy. Example 4 utilized West/Carrier Muscular Dystrophy Animal Models (Delta-sarcoglycan knock-out mice (sgcd−/−)). Mice devoid of DSG develop cardiomyopathy and MD with signs of progressive disease such as necrosis, muscular regeneration, inflammation and fibrosis within the first 3 months of life. Mice that are homozygous for the targeted mutation are viable, fertile and normal in size. No gene product (protein) is immunodetected in skeletal muscle microsomal preparations. At 8 weeks of age there is an onset of sudden mortality, with a 50% survival rate at 28 weeks. Elevated creatine kinase serum levels are indicative of striated muscle degeneration. […] Myofiber membranes have permeability defects as assessed by Evans blue dye uptake into myofiber cytoplasm. […]

dSG KO mice [8] = assay: spontaneous exercise (voluntary wheel running) in dSG KO mice; assay type: in vivo, mouse; settings: 6 month old dSG KO males; wheel access for 10 days after 4.5M of treatment; FIG. 5
Excerpt: as §1
FIG. 5 provides spontaneous exercise date for 6 month old males. […]

[9] = tested on: δ-sarcoglycan knockout (dSG KO) mouse model of limb-girdle muscular dystrophy; assay: cardiac function (Echo, cardiac output) in dSG KO mice; assay type: in vivo
Excerpt: as §2, §1
(§3) While the DSG KO (sgcd−/−) mice lack functional delta-sarcoglycan, the MD phenotype is milder than the human disease. […]

[10] = tested on: utrophin/dystrophin double knockout (DKO) mice, a model of severe DMD; assay: survival of utrophin/dystrophin DKO mice; assay type: in vivo, mouse
Excerpt: as §2
dSG KO mice, chosen for their cardiac phenotype, are a model of LGMD, but DMD which occurs in approximately 1:3500 male births (1), is far more common a disease than LGMD. The mdx mouse model of DMD poorly replicates the shortened life expectancy, cardiac fibrosis, and cardiomyopathy seen in DMD patients. The utrophin/dystrophin DKO model had significant mortality by 10 weeks, although treatment with the TPr antagonist ifetroban led to 100% survival to this predetermined timepoint. Although TPr antagonism may prevent spontaneous death in DMD, due to severe kyphosis and frailty we were not able to obtain much useful cardiac data with the DKO model of DMD.
as §3

[11] = dSG KO mice, given in drinking water, preliminary studies

Which “average wire hang time” value [1] does the source give for `CCCCCNC(=O)c1coc([C@H]2[C@@H](Cc3ccccc3CCC(=O)O)[C@@H]3CC[C@H]2O3)n1` [ifetroban, [1S-(1α,2α,3α,4α)]-2-[[3-[4-[(Pentylamino)carbonyl]-2-oxazolyl]-7-oxabicyclo[2.2.1]hept-2-yl]methyl]-benzenepropanoic acid] here?
The value was “significantly longer average hang times”.

And the wire hang time (dSG KO mice [2]; dSG mice at 6 months, FIG. 6)?
Its wire hang time is “improved wire hang time”.

And the “wire hang time (longest time)” value (dSG KO mice [2]; male mice at 6 months, FIG. 8)?
The value was “difficult to measure any difference”.

And the “cardiac histology: fibrosis in RV” value ([3]; dSG KO males, Masson's trichrome 4× (FIG. 9) or 2× (FIG. 10))?
The value was “less fibrosis”.

And the “cardiac histology: fibrosis in left and right ventricle” value ([3]; dSG KO males, Masson's trichrome, 10×, FIG. 11)?
The value was “Less fibrosis”.

What about the “formation of cardiac fibrosis” value [3, 11] of the same molecule?
The value was “limits the formation of cardiac fibrosis”.

And the cardiac function [4]?
Its cardiac function is “improves cardiac function”.

And the right ventricular fibrosis [4]?
Its right ventricular fibrosis is “dramatically decreases right ventricular fibrosis”.

What about the “fibrosis in intestinal tissue” value (dSG KO mice [5]) of the same molecule?
The value was “less fibrosis”.

What about the “plasma cardiac troponin I levels” value [6] of the same molecule?
The value was “normalizing elevated plasma cardiac troponin I levels”.

And the survival (dSG KO mice [7])?
The survival was “significantly improved survival”.

What about the “spontaneous exercise (voluntary wheel running): skeletal function deficit” value (dSG KO mice [8]) of the same molecule?
The value was “seen to a less extent”.

What about the “3 month Echo data: cardiac dysfunction” value ([9]; dSG KO males at 3 months, FIG. 3) of the same molecule?
Its value is “prevents cardiac dysfunction”.

And the “decline in cardiac function” value [9, 11]?
The value was “prevents a decline in cardiac function”.

And the cardiac output ([9]; male dSG KO mice at 3 months, FIG. 4, compared to vehicle)?
Its cardiac output is “improved similar to WT levels”.

And the 10-week survival ([10]; DKO mice, treatment started at 3 weeks upon weaning)?
Its 10-week survival is 100%.

What about the survival time ([10]; all DKO mice, FIG. 17) of the same molecule?
The survival time was > 70 days.

With `O=C(O)/C=C/c1ccc(Cn2ccnc2)cc1` [ozagrel] as the molecule, how does the cardiac function [4] read?
The cardiac function was “no effect”.

What about the right ventricular fibrosis [4] of the same molecule?
Its right ventricular fibrosis is “no effect”.

Which cardiac function [4] does the source give for `CC(=O)Oc1ccccc1C(=O)O` [aspirin] here?
Its cardiac function is “no effect”.

And the right ventricular fibrosis [4]?
Its right ventricular fibrosis is “no effect”.

Reference: US10064845B2, “Compositions and methods of treating muscular dystrophy with thromboxane-A2 receptor antagonists” (Cumberland Pharmaceuticals, Inc., priority 2016, dated 2018)
